Common to all, as to experiment: NCI tumour cell line growth inhibition, 48 h
For assay [1], the system named is LOX IMVI melanoma.
The subject of assay [2] is SN12C renal.
The test system of assay [3] is A549 NSCLC.
Assay [4] concerns SK-MEL-5 melanoma.
Assay [5] concerns UACC-62 melanoma.
For assay [6], the system named is TK-10 renal.
Assay [7] deals with OVCAR-3 ovarian.
Assay [8] relates to KM12 colon.
Assay [9] concerns PC-3 prostate.
The subject of assay [10] is MDA-MB-435.

Values joined by “and” are separate entries in the source; they are usually repeats but may differ in a detail not shown here. Equal values may be shown once.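 The compound was tested at five concentrations on cells cultured in 96-well plates, with a 48-hour exposure period. The concentration for 50% growth inhibition is given as GI50. TGI is the concentration that stops growth completely.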

With `COc1ccc(C(=O)C(C(=O)C(=O)Nc2ccc(Cl)c(Cl)c2)c2ccc(OC)cc2)cc1` (centres undefined), the TGI in [1], in assay [2], in assay [3], in assay [4], in [5] and in assay [6] was above 100 µM throughout. For the same compound, the TGI in assay [7] and in assay [8] was above 100 µM each time.

Take `COc1ccc(-c2nn(-c3cccc(NC(=O)c4ccc5c(c4)OCCO5)c3)cc2-c2ccncc2)cc1Cl`: the GI50 in assay [9] was 2.12 µM; in assay [1], 3 µM; in [2] it was 2.92 µM; in assay [3] it was 2.98 µM; in assay [4], 0.968 µM; in [5], 1.46 µM. The GI50 is 5.25 µM in [6] and 1.39 µM in [8]. For the same compound, the TGI in [9] was 18.1 µM; in assay [1] it was 13 µM; in assay [2], above 100 µM; in assay [3], 77.5 µM; in assay [4], 3.3 µM; in assay [5], 15.9 µM. Further, the values for the TGI in assay [6] and in [8] were 29.3 µM and 6.76 µM, respectively.

`Cc1c(C(=O)C/C(=N/NC(=O)C[n+]2ccccc2)C(=O)Nc2ccccc2)[n+](=O)c2ccccc2n1O`: the TGI in [1], in assay [2], in [3], in [4], in assay [5] and in assay [6] was above 100 µM in each case. Besides, the TGI in [7] and in assay [8] was above 100 µM throughout.

For the compound `COc1ccc(N=Nc2c(-c3ccccc3)nn(C(=O)CC(=O)Nc3cccc(Cl)c3)c2-c2ccccc2)cc1`, the TGI in [1], in assay [2], in assay [3], in assay [4], in assay [5] and in [6] was above 100 µM each time. The TGI in assay [7] and in assay [8] was above 100 µM each time.

`Cn1c(O)c(C(/C=C/c2ccccc2)=NCCN=C(/C=C/c2ccccc2)c2c(O)n(C)c(=O)n(C)c2=O)c(=O)n(C)c1=O`: the GI50 was 17.1 µM in assay [1]; 16.5 µM in assay [2]; 16.7 µM in assay [3]; 11.4 µM in assay [4]; 19.2 µM in assay [5]; 23.7 µM in assay [6]. Further, the GI50 in assay [7] is 21 µM; in assay [8], 14.1 µM; in assay [10], 18 µM. The TGI in assay [1] was above 50 µM; in [2], above 50 µM; in assay [3], above 50 µM; in assay [4] it was 29.5 µM; in [5], above 50 µM; in assay [6] it was above 50 µM. The TGI in [7], in assay [8] and in [10] was above 50 µM each time.

On to `CC(C)(C)CC(C)(C)c1cc2c(O)c(c1)Cc1cc(C(C)(C)CC(C)(C)C)cc(c1O)Cc1cc(C(C)(C)CC(C)(C)C)cc(c1O)Cc1cc(C(C)(C)CC(C)(C)C)cc(c1O)Cc1cc(C(C)(C)CC(C)(C)C)cc(c1O)Cc1cc(C(C)(C)CC(C)(C)C)cc(c1O)C2`, for which the TGI in [2], in assay [3], in assay [4], in assay [5], in [6] and in [7] was above 100 µM each time. The TGI in [8] is above 100 µM.

Consider `C[C@]12CCc3nonc3C1CC[C@@H]1C2CC[C@]2(C)NC(=O)CCC12` (some centres undefined), for which the TGI in assay [1], in assay [2], in assay [3], in assay [4], in assay [5] and in assay [6] was above 100 µM throughout. Besides, the TGI in [7] and in assay [8] was above 100 µM each time.

For the compound `O=C1N(c2ccccc2)C(=O)C2(SC=NN2Cc2ccccc2)N1c1ccccc1` (centres undefined), the TGI in assay [1], in [2], in assay [3], in [4], in assay [5] and in [6] was above 100 µM each time. Moreover, the TGI in [7] and in assay [8] was above 100 µM in each case.

Regarding `O=C([O][Hg][CH2]C1COC([CH2][Hg][O]C(=O)c2ccccc2)CO1)c1ccccc1` (centres undefined), the GI50 in [9] is 15.3 µM; in [1] it was 1.89 µM and 1.66 µM; in assay [2], 12.2 µM and 1.54 µM; in assay [3], 19.3 µM and 16.4 µM; in assay [4], 15.1 µM and 2.85 µM; in assay [5], 16.7 µM and 2.26 µM. Also, the GI50 in assay [6] is 10.5 µM and 1.85 µM; in assay [7] it was 7.93 µM; in assay [8], 31.1 µM. For the same compound, the TGI in [1] is 4.85 µM and 3.11 µM; in [2] it was 24.6 µM and 3.02 µM; in assay [3] it was 37.6 µM and 33.8 µM; in assay [4], 28.6 µM and 10.7 µM; in [5], 30.4 µM and 5.09 µM; in assay [6], 19 µM and 3.33 µM. The TGI was 21.9 µM in assay [7] and 46 µM in assay [8].

Consider `O=C(c1cc2ccccc2o1)N(Cc1ccccc1)c1ccccc1`, for which the TGI is 39 µM in assay [1]; 34.7 µM in assay [2]; above 100 µM in [3]; 31.2 µM in assay [4]; 28.1 µM in [5]; above 100 µM in assay [6]. In addition, the figures for the TGI in assay [7] and in assay [8] were 41.2 µM and 46.6 µM, respectively.

Regarding `CC(=O)c1cccc(NC(=O)C(=O)C(C2OC(=O)c3ccccc32)[N+](=O)[O-])c1` (centres undefined), the TGI in assay [1], in assay [2], in assay [3], in [4], in [5] and in [6] was above 100 µM throughout. Besides, the TGI in [7] and in assay [8] was above 100 µM in each case.

The record behind these values is PubChem BioAssay (NCI).
